Laboratory results as given in patent US20250152613A1, “COMPOSITIONS AND METHODS FOR COVID-19 TREATMENT” (101 THERAPEUTICS LTD., priority 2022, published 2025).

Experiments:
[1] = tested on: bleomycin-induced PF mice model; test: bleomycin-induced pulmonary fibrosis (PF) mice model; assay type: in vivo, C57BL/6 mice
Description: Post COVID-19 pulmonary fibrosis (PF) is defined as the presence of persistent and different fibrotic tomographic changes, often combined with impairment in pulmonary function tests. The pathogenesis of post-COVID-19 PF is partially known and likely multifactorial. Excessive production of reactive oxygen species and non-protective mechanical ventilation are potential triggers for post-COVID-19 PF. To explore the beneficial effect of compound 1 in pulmonary fibrosis, a bleomycin-induced PF mice model was utilized. Bleomycin is known for its ability to induce lung injury resulting in an acute inflammatory response, and the inflammatory phase is followed by fibrotic changes. In this model, direct administration of bleomycin to the lungs decreases survival of treated mice, due to vast pulmonary damage. The study was performed in 5 treatment groups of C57BL/6 mice (n=10-12 per group) and included early or late treatment with compound 1 (1 mg/mouse), early treatment with dexamethasone (DEX) in an amount of 0.45 mg/mouse, vehicle, and naïve control groups. Early treatment was initiated on day 1, on the same day as bleomycin administration. Late treatment was initiated on day 14. The test items were injected in the vehicle, dexamethasone and Compound 1 early treatment groups, on days 1, 2, 3, 7, 14, 21 and 28. In the late treatment group, Compound 1 was administered on days 14, 15, 16, 21, 28 and 31. The test items were injected intravenously through the tail vein after pulmonary fibrosis model induction (bleomycin was induced by intratracheal administration of bleomycin (3.5 U/kg)). Animals were monitored for morbidity, mortality, body weight, and clinical signs. Selected clinical signs (i.e., physical appearance, activity, ability to respond to external stimulus, eyes, and respiration quality) were scored to provide a clinical score. Cytokine levels in BALF (Day 33) and serum (Days 17 & 32) were determined.

[2] = tested on: moderate COVID-19 patients; test: Phase II/Phase III study of Compound 1 Vs Dexamethasone for moderate COVID-19 with Standard of Care; assay type: in vivo, human; conditions: expected
Experimental: A prospective, randomized, multicenter, parallel group, double-blind, adaptive Phase II/Phase III study to evaluate safety and efficacy of Compound 1 Vs Dexamethasone for moderate COVID-19 disease along with Standard of Care is performed. The total duration of treatment administration for all patients is 3 days. The endpoints of the study are to evaluate efficacy of Compound 1 versus dexamethasone in moderate COVID-19 patients.
Compound 1 is contained in vials, each vial containing 20 mg of Compound 1 to be reconstituted in saline (0.9% NaCl) for bolus intravenous (IV) injection of 5 ml of solution.
The study is designed to determine rate of treatment-emergent adverse events (AE) and serious adverse events (SAE) including changes in clinical condition, vital signs and laboratory parameters.
Other endpoints of the study include: lowering mortality 28 or 60 days from administration; lowering rate of Intensive care units (ICU) admission; lowering mechanical ventilation or vasopressor therapy (28 days follow-up); improved clinical recovery rate [Time Frame: Day 10]-Proportion of patients who recovered within 10 days for which recovery is defined when the patient improves by 2 points in 11-point ordinal scale; an improvement in temperature, heart rate and oxygen saturation on days 1, 2, 4 and 7; decrease in viral load relative to admission levels according to RT-PCR from nasopharyngeal swab on days 3, 5 and 10; changes in levels of CRP, ferritin and CBC with differential; change in cytokine profile and lymphocyte sub-populations; and measurement of ACTH and morning cortisol levels.
Approximately 318 eligible patients are randomized in a 1:1 ratio to one of 2 treatment groups. Group 1: Compound 1, 20 mg per day+Standard of care. Group 2: Dexamethasone 6 mg+Standard of care.
Total expected study duration is approximately 60 days consisting of: a screening period: 7 days (Day-7 to Day 1) prior to randomization. Treatment period: Day 1 to Day 3. End of treatment assessment: Day 3 (for patients receiving Compound 1) and Day X (for Dexamethasone arm, based on investigator' discretion). […]

[3] = according to the literature; cited from earlier work
COVID-19 patients = conditions: diabetics; RECOVERY trial (Rayman et al. 2021); cited from earlier work
[4] = early treatment from day 1, i.v., compound 1 1 mg/mouse, DEX 0.45 mg/mouse, day 33, mean±standard deviation
[5] = late treatment from day 14, i.v., 1 mg/mouse, day 33, mean±standard deviation
[6] = late treatment with Compound 1, day 33
[7] = Compound 1 20 mg per day i.v. for 3 days + Standard of care vs Dexamethasone 6 mg
[8] = 10-30 mg i.v., single and 3 day repeated
[9] = out of 23 possibly or probably related AEs

## C[C@@H]1C[C@H]2[C@@H]3CCC4=C/C(=N/OCCCO[C@H]5O[C@H](CO)[C@@H](O)[C@H](O)[C@@H]5O)C=C[C@]4(C)[C@@]3(F)[C@@H](O)C[C@]2(C)[C@@]1(O)C(=O)CO [Compound 1, 1-((8S,9R,10S,11S,13S,14S,16R,17R,E)-9-fluoro-11,17-dihydroxy-10,13,16-trimethyl-3-((3-(((2S,3S,4S,5S,6R)-3,4,5-trihydroxy-6-(hydroxymethyl)tetrahydro-2H-pyran-2-yl)oxy)propoxy)imino)-6,7,8,9,10,11,12,13,14,15,16,17-dodecahydro-3H-cyclopenta[a]phenanthren-17-yl)-2-hydroxyethan-1-one]
[1]; [4]
  % Fibrosis - Digital morphometry: 8.25 ± 1.26%
  Fibrosis score (MT): 2.25 ± 0.5
  Pathological score (H&E): 2.5 ± 0.58
[1]; [5]
  % Fibrosis - Digital morphometry: 5.2 ± 1.1%
  Fibrosis score (MT): 2 ± 0.7
  Pathological score (H&E): 2 ± 0.7
[1]; late treatment from day 14, compared with DEX and Compound 1 early groups, similar to naïve
  mortality rate (FIG. 1): lower mortality rate
[1]; late treatment with Compound 1
  overall effect on mortality and disease progression vs early treatment with DEX or Compound 1: more profound effect
[1]; [6]
  lung fibrosis by histopathological evaluation vs. vehicle control: reduction in lung fibrosis
  pathological and fibrosis scores and percentage of lung fibrosis compared to DEX treatment: slightly lower
[2]; [7]
  hyperglycemia relative to the dexamethasone group: lower
  recovery from moderate COVID-19 relative to the dexamethasone group: enhanced
[2]; Compound 1 20 mg per day i.v. for 3 days + Standard of care
  mortality: lower mortality
Healthy volunteers; 10, 20, 30 mg i.v.
  correlation between dose escalation and AEs frequency or severity: no correlation
Healthy volunteers; [8]
  AE reported after exposure to Investigational Product: 29
  AEs possibly related to the IP: 13
  AEs probably related to the IP: 10
  Dose-Limiting Toxicities (DLTs): No DLTs
  Serious Adverse Events (SAEs) or severe AEs: No Serious Adverse Events (SAEs) or severe AEs
  cases of hyperglycemia: single case
  possibly or probably related AEs, total: 23
  post exposure AEs assessed as not related: 6
Healthy volunteers; 15 healthy participants, 10, 20, 30 mg single i.v. doses and 30 mg once a day for 3 days, includes 4 before exposure
  total Adverse Events (AE) reported during the study: 33
Healthy volunteers; 4 hours post any of the 24 administrations
  blood glucose changes after administration: no changes
Healthy volunteers; all events
  severity of adverse events: mild to moderate
Healthy volunteers; one individual
  severity of the hyperglycemia event: mild and transient
Healthy volunteers; one individual, increased from 97
  Blood Glucose after increase: 105 mg/dL
Healthy volunteers; [9]
  anxiety, number: 1
  anxiety, percent: 4.34%
  chemistry AEs, number: 8
  chemistry AEs, percent: 34.8%
  fatigue reports, number: 2
  fatigue reports, percent: 8.7%
  hematology AEs, number: 6
  hematology AEs, percent: 26.1%
  hypertension, number: 1
  hypertension, percent: 4.34%
  insomnia, number: 2
  insomnia, percent: 8.7%
  noncardiac chest pain, number: 1
  noncardiac chest pain, percent: 4.34%
  skin rash, number: 2
  skin rash, percent: 8.7%

## C[C@@H]1C[C@H]2[C@@H]3CCC4=CC(=O)C=C[C@]4(C)[C@@]3(F)[C@@H](O)C[C@]2(C)[C@@]1(O)C(=O)CO [DEX, dexamethasone, reference compound]
[1]; mouse, in vivo, iv
  % Fibrosis - Digital morphometry: 6 ± 1.41%
  Fibrosis score (MT): 2.25 ± 0.5
  Pathological score (H&E): 2.25 ± 0.5
[3]
  most frequently reported adverse effect: insomnia
COVID-19 patients
  blood glucose levels: significantly elevated
